According to patent publication US4423076A, “1-Branched-alkyl-3-(2-haloethyl)-3-nitrosoureas as novel antitumor agents” (National Foundation for Cancer Research, Inc., priority 1979, dated 1983):

Assays:
Solubility = type: physicochemical; settings: prevented its clinical evaluation
[1] = tested on: murine leukemia P388 tumor cells; experiment: Single-dose treatment against two-day murine leukemia P388 (increase in median lifespan); type: in vivo, CDF1 mice
Description: (§1) A single dose of 1-neopentyl-3-(2-chloroethyl)-3-nitrosourea (NCNU) was injected intraperitoneally (ip) in CDF1 mice which had been implanted ip two days earlier with approximately 10×10^5 murine leukemia L1210 tumor cells. The NCNU was dissolved in emulphor EL-620 (polyoxyethylated; GAF Corporation, New York, N.Y.) and raised to the desired volume with 0.85% sodium chloride.
The study of Experiment I was conducted using approximately 5×10^5 murine leukemia P388 tumor cells (0.1 ml of a 1:100 dilution).
(§2) Effects of Single-Dose Treatment with NCNU Against
Two-Day Murine Leukemia P388
(§3) experiments are continuing.

[2] = tested on: murine leukemia L1210 tumor cells; experiment: Single-dose treatment against two-day murine leukemia L1210 (increase in median lifespan); type: in vivo, CDF1 mice
Description: as §1, §2
Two-Day Murine Leukemia L1210
as §3

[3] = tested on: Yancey's lymphocytic leukemia (YLL); experiment: NCNU against Yancey's lymphocytic leukemia, treatment begun day 2 or 7, several schedules; type: in vivo, mouse
Description: (§4) The effect of NCNU was tested against Yancey's lymphocytic leukemia (YLL) which had been implanted subcutaneously (sc) two days before injection of the drug. The single injection of 0.1 ml of a solution of one spleen of a YLL bearing mouse homogenized in 10 ml Locke's Solution was given either intraperitoneally or subcutaneously.
The study of Experiment III was conducted with NCNU treatment beginning at 2 or 7 days after implantation of YLL tumors. NCNU injection was ip or sc on a schedule of one time per week for 4 weeks, twice per week for 4 weeks, or a single dose.
Effects of NCNU Against Yancey's
as §3

various forms of cancer = experiment: Human studies, patients having advanced stages of various forms of cancer; type: in vivo; settings: two 25 mg/kg sc doses or iv, total 50 mg/kg daily
Description: Patients having advanced stages of various forms of cancer are treated by subcutaneous injection of two 25 mg/kg doses of NCNU in water or by intravenous administration of 1 milligram NCNU/ml 0.9% saline to provide a total daily dose of 50 mg/kg; a full clinical examination is carried out prior to and after administration. Tumor growth is measured where possible by palpition, X-rays and photography.

[4] = Toxicity of single-dose NCNU ip in normal mice (deaths); design: species or system CDFl mice; settings: in vivo; for mortality at 192 h: at day 8; for mortality at 24 h: at day 1; for mortality at 216 h: at day 9
Description: Toxicity studies were conducted by injecting a single dose of NCNU ip.
Toxicity of NCNU in CDFl Normal Mice

[5] = tested on: Yancey's lymphocytic leukemia (YLL); experiment: Single-dose treatment against two-day Yancey's lymphocytic leukemia (increase in median life span); type: in vivo, mouse
Description: as §4, §2
Two-Day Yancey's Lymphocytic Leukemia
as §3

[6] = Chemical stability of isocyanates; type: physicochemical; settings: for half-life: physiological pH and temperature; for stability (hydrolysis): water-acetone (1:3), 57° C., three-day period, pH 6.0
Description: Both have half-lives of greater than 30 minutes at physiological pH and temperature.

## CC(C)(C)CNC(=O)N(CC(C)(C)C)N=O
Solubility
  solubility: limited solubility

## CC(C)(C)CNC(=O)N(CCCl)N=O [NCNU, 1-neopentyl-3-(2-chloroethyl)-3-nitrosourea]
[1]; 0.5 mg/mouse
  % ILS: 41.5%
[1]; 1.0 mg/mouse
  % ILS: 91.7%
[1]; 2.0 mg/mouse, + = animals not yet all died
  % ILS: ≥ 483%
[2]; 25 mg/kg ip
  % ILS (increase in median lifespan): 37.5%
[2]; 50 mg/kg ip
  % ILS (increase in median lifespan): 100%
[2]; 75 mg/kg ip, + = animals not yet all died
  % ILS (increase in median lifespan): ≥ 275%
[2]; 100 mg/kg ip, + = animals not yet all died
  % ILS (increase in median lifespan): ≥ 275%
[3]; 0.5 mg/mouse ip, 1x/wk for 4 wks, begun day 2
  % ILS: 28.6%
[3]; 0.5 mg/mouse ip, once, begun day 7
  % ILS: 6.7%
[3]; 0.5 mg/mouse sc, 1x/wk for 4 wks, begun day 2, + = animals not yet all died
  % ILS: ≥ 114.3%
[3]; 0.5 mg/mouse sc, once, begun day 7
  % ILS: 6.7%
[3]; 1.0 mg/mouse ip, 1x/wk for 4 wks, begun day 2
  % ILS: 178.6%
[3]; 1.0 mg/mouse ip, once, begun day 7
  % ILS: 66.6%
[3]; 1.0 mg/mouse sc, 1x/wk for 4 wks, begun day 2, + = animals not yet all died
  % ILS: ≥ 207.1%
[3]; 1.0 mg/mouse sc, once, begun day 7
  % ILS: 66.6%
[3]; 2.0 mg/mouse ip, 1x/wk for 4 wks, begun day 2
  % ILS: 14.3%
[3]; 2.0 mg/mouse sc, 1x/wk for 4 wks, begun day 2, + = animals not yet all died
  % ILS: ≥ 264%
[3]; 25 mg/kg ip, 1x/wk for 4 wks, begun day 2, + = animals not yet all died
  % ILS: ≥ 100%
[3]; 25 mg/kg ip, 2x/wk for 4 wks, begun day 2, + = animals not yet all died
  % ILS: ≥ 100%
[3]; 25 mg/kg sc, 1x/wk for 4 wks, begun day 2, + = animals not yet all died
  % ILS: ≥ 100%
[3]; 25 mg/kg sc, 2x/wk for 4 wks, begun day 2, + = animals not yet all died
  % ILS: ≥ 100%
[3]; 50 mg/kg ip, 1x/wk for 4 wks, begun day 2, + = animals not yet all died
  % ILS: ≥ 100%
[3]; 50 mg/kg ip, 2x/wk for 4 wks, begun day 2, + = animals not yet all died
  % ILS: ≥ 100%
[3]; 50 mg/kg sc, 1x/wk for 4 wks, begun day 2, + = animals not yet all died
  % ILS: ≥ 100%
[3]; 50 mg/kg sc, 2x/wk for 4 wks, begun day 2, + = animals not yet all died
  % ILS: ≥ 100%
[3]; 75 mg/kg ip, 1x/wk for 4 wks, begun day 2, + = animals not yet all died
  % ILS: ≥ 100%
[3]; 75 mg/kg ip, 2x/wk for 4 wks, begun day 2
  % ILS: 66.6%
[3]; 75 mg/kg sc, 1x/wk for 4 wks, begun day 2, + = animals not yet all died
  % ILS: ≥ 100%
[3]; 75 mg/kg sc, 2x/wk for 4 wks, begun day 2
  % ILS: 0%
Various forms of cancer
  inflammation: Inflammation gradually subsides
  tumor size: tumor size frequently decreases
Various forms of cancer; within several days
  clinical improvement: marked clinical improvement within several days
[4]; 1.0 mg/mouse ip
  mortality: 0%
[4]; 2.0 mg/mouse ip, at day 13, others survived
  mortality at 312 h: 60%
[4]; 4.0 mg/mouse ip, at day 10
  mortality at 240 h: 100%
[4]; 8.0 mg/mouse ip
  mortality at 192 h: 100%
[4]; 16.0 mg/mouse ip, at day 4
  mortality at 96 h: 100%
[4]; 20.0 mg/mouse ip
  mortality at 24 h: 100%
[4]; 32.0 mg/mouse ip
  mortality at 24 h: 100%
[4]; mouse, 100 mg/kg ip, at day 13
  mortality at 312 h: 100%
[4]; mouse, 150 mg/kg ip, at day 11
  mortality at 264 h: 100%
[4]; mouse, 200 mg/kg ip
  mortality at 216 h: 100%
[4]; mouse, 225 mg/kg ip
  mortality at 216 h: 100%
[4]; mouse, 250 mg/kg ip
  mortality at 192 h: 100%
[4]; mouse, 500 mg/kg ip, at day 5
  mortality at 120 h: 100%
[4]; mouse, 750 mg/kg ip, at day 2
  mortality at 48 h: 100%
[4]; mouse, 1000 mg/kg ip
  mortality at 24 h: 100%
[5]; 0.5 mg/mouse ip, single dose (first entry)
  % ILS: 14.3%
[5]; 0.5 mg/mouse ip, single dose (second entry)
  % ILS: 6.7%
[5]; 0.5 mg/mouse sc, single dose (first entry)
  % ILS: 35.7%
[5]; 0.5 mg/mouse sc, single dose (second entry)
  % ILS: 13.3%
[5]; 1.0 mg/mouse ip, single dose (first entry)
  % ILS: 64.3%
[5]; 1.0 mg/mouse ip, single dose (second entry)
  % ILS: 33.3%
[5]; 1.0 mg/mouse sc, single dose (first entry)
  % ILS: 64.3%
[5]; 1.0 mg/mouse sc, single dose (second entry)
  % ILS: 20.0%
[5]; 2.0 mg/mouse ip, single dose, + = animals not yet all died
  % ILS: ≥ 264%
[5]; 2.0 mg/mouse sc, single dose
  % ILS: 78.0%
[5]; 25 mg/kg ip, single dose
  % ILS: 13.3%
[5]; 25 mg/kg sc, single dose
  % ILS: 6.6%
[5]; 50 mg/kg ip, single dose
  % ILS: 60.0%
[5]; 50 mg/kg sc, single dose
  % ILS: 60.0%
[5]; 75 mg/kg ip, single dose
  % ILS: 66.6%
[5]; 75 mg/kg sc, single dose
  % ILS: 73.3%

## CC(C)(C)CCN=C=O [neohexyl isocyanate]
[6]
  half-life: > 30 min
  stability (hydrolysis): remarkably stable

## CC(C)(C)CN=C=O [neopentyl isocyanate]
[6]
  half-life: > 30 min
  stability (hydrolysis): remarkably stable
